Source: patent publication US10493082B2, “4-pregenen-11β-17-21-triol-3,20-dione derivatives” (Allergan, Inc., priority 2011, dated 2019)

Key:
[1] = molecular target: T1, fusion protein GAL4(DBD)-MR(LBD) (Homo sapiens, UniProt P08235); test: Mineralocorticoid receptor transactivation, UAS-bla HEK 293T CELLSENSOR β-lactamase reporter, agonist mode; format: cell-based; conditions: for % Activation at 100 nM: MR, UAS-bla HEK 293T, agonist mode, 16 hours
T1 sequence (P08235 726-964 limits assumed): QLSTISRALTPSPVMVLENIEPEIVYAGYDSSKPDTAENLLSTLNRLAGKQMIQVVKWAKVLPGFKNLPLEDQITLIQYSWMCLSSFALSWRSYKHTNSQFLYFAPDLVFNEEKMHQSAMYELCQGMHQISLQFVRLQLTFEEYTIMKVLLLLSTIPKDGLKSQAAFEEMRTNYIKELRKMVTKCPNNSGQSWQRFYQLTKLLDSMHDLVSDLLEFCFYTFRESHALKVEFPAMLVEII
Procedure: Mineralocorticoid receptor (MR) activation potency was assessed using a HEK 293T cell line containing the UAS-bla reporter (UAS-bla HEK 293T CELLSENSOR®). This cell line was stably cotransfected with an expression construct containing β-m lactamase cDNA under control of the GAL4 Upstream Activator Sequence (UAS) and another expression construct encoding for the fusion protein GAL4(DBD)-MR(LBD). […] All assays were performed as 10-point dose responses using a half log-fold dilution series starting with a maximum compound concentration of 100 nM. The compounds were incubated for 16 hours. The activation of the fusion protein GAL4(DBD)-MR(LBD) leads to expression of the reporter β-lactamase which is detected by the conversion of a FRET substrate in a ratiometric assay format. This functional assay allows for measurement of receptor agonism by compounds and can be used to determine compound potency and selectivity. Assay reproducibility was determined by calculating Z′ values for untreated versus maximum stimulation.

[2] = molecular target: T2, Glucocorticoid receptor (GR) (Homo sapiens, UniProt P04150); test: Glucocorticoid receptor transactivation, MMTV-bla HeLa CELLSENSOR β-lactamase reporter, agonist mode; format: cell-based; conditions: for % Activation at 100 nM: GR, 5 hours; for greater potency compared to the parent molecule cortisol: GR signaling pathway, relative to cortisol
T2 construct: host or cells: MMTV-bla HeLa CELLSENSOR
T2 sequence (P04150 1-777): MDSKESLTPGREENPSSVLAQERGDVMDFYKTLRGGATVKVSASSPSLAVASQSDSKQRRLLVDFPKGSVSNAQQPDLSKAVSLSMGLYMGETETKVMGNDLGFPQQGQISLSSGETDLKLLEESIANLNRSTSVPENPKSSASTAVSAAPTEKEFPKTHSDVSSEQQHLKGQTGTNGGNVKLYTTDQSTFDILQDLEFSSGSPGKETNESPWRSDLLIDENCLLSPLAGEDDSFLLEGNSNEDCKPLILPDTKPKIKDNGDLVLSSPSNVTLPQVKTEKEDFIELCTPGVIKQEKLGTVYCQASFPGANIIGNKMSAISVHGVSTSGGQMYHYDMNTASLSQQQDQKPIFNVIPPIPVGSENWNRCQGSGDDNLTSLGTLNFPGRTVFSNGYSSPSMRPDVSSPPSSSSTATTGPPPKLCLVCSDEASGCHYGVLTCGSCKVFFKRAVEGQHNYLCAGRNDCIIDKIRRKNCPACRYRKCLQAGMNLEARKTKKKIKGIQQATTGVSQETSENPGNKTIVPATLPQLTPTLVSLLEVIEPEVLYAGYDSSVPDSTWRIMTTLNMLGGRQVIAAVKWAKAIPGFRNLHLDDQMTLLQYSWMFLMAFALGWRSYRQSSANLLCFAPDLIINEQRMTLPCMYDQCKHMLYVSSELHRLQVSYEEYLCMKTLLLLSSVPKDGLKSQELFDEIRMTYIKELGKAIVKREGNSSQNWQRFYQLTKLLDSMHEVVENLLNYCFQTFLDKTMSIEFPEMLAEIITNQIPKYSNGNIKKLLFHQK
Procedure: Glucocorticoid receptor (GR) activation potency was assessed using a HeLa cell line containing the MMTV-bla reporter (MMTV-bla HeLa CELLSENSOR®, Invitrogen Corp., Carlsbad, Calif.). This cell line was stably transfected with an expression construct containing β-lactamase cDNA under control of the MMTV response element previously identified as a glucocorticoid receptor response element. […] All assays were performed as 10-point dose responses using a half log-fold dilution series starting with a maximum compound concentration of 100 nM. The compounds were incubated for 5 hours. The activation of endogenous GR leads to expression of the reporter β-lactamase which is detected by the conversion of a FRET substrate in a ratiometric assay format. This functional assay allows for measurement of receptor agonism by compounds and can be used to determine compound potency and selectivity. Assay reproducibility was determined by calculating Z′ values for untreated versus maximum stimulation.

[3] = patients, applied locally via eye drops, compared to dexamethasone, prednisolone and fluorometholone; cited from earlier work

C[C@]12CCC(=O)C=C1CC[C@@H]1[C@@H]2[C@@H](O)C[C@@]2(C)[C@H]1CC[C@]2(OC(=O)CCS(=O)(=O)c1ccccc1)C(=O)CO [drawing 18]
EC50 [1]: 3.48 nM | % Activation at 100 nM [1]: 79%

C[C@]12CCC(=O)C=C1CC[C@@H]1[C@@H]2[C@@H](O)C[C@@]2(C)[C@H]1CC[C@]2(OC(=O)Cc1ccc(Br)cc1)C(=O)CO [drawing 15]
% Activation at 100 nM ([2]; MMTV-bla HeLa, agonist mode): 0%

C[C@]12CCC(=O)C=C1CC[C@@H]1[C@@H]2[C@@H](O)C[C@@]2(C)[C@H]1CC[C@]2(OC(=O)C1CCCC1)C(=O)CO [cortisol 17-cyclopentanoate]
greater potency compared to the parent molecule cortisol [2]: about 30 fold

C[C@]12CCC(=O)C=C1CC[C@@H]1[C@@H]2[C@@H](O)C[C@@]2(C)[C@H]1CC[C@]2(OC(=O)c1ccccc1)C(=O)CO [cortisol 17-benzoate]
greater potency compared to the parent molecule cortisol [2]: about 30 fold

C[C@]12CCC(=O)C=C1CC[C@@H]1[C@@H]2[C@@H](O)C[C@@]2(C)[C@H]1CC[C@]2(OC(=O)Cc1ccc(Br)cc1)C(=O)CO [drawing 19]
EC50 [1]: 5.53 nM | % Activation at 100 nM [1]: 77%

C[C@]12CCC(=O)C=C1CC[C@@H]1[C@@H]2[C@@H](O)C[C@@]2(C)[C@H]1CC[C@]2(O)C(=O)CO [cortisol]
effect on intraocular pressure [3]: minimal effect on intraocular pressure

C[C@]12CCC(=O)C=C1CC[C@@H]1[C@@H]2[C@@H](O)C[C@@]2(C)[C@H]1CC[C@]2(O)C(=O)CO
% Activation at 100 nM ([2]; MMTV-bla HeLa, agonist mode): 43%

C[C@]12CCC(=O)C=C1CC[C@@H]1[C@@H]2[C@@H](O)C[C@@]2(C)[C@H]1CC[C@]2(OC(=O)CCS(=O)(=O)c1ccccc1)C(=O)CO [drawing 14]
% Activation at 100 nM ([2]; MMTV-bla HeLa, agonist mode): 17% | EC50 ([2]; MMTV-bla HeLa, agonist mode, 5 hours incubation, max concentration 100 nM, one experiment in duplicate): > 100 nM
